The values that follow come from US11578125B2, “Anti-thyroid hormone (T4) recombinant antibody or antigen binding fragment” (Teknologian tutkimuskeskus VTT Oy, priority 2018, dated 2023).

For one assay, the target named is anti-T4 Fab fragment. Nature of the assay: SPR (BIAcore T200) inhibition assay, immobilized T4-AP, affinity and specificity determination. The class given is binding, mouse. Conditions: 2 nM anti-T4 Fab preincubated with analyte, T4-AP on CM5 chip, 2% DMSO-PBSP, triplicates. As to the method: T4-alkaline phosphatase was immobilized to the sensor surface and Kd values were determined by inhibition assay method.
T4-AP and AP (P5931, Sigma-Aldrich, St. Louis, Mo., USA), were diluted to 100 μg/mL concentration in 10 mM sodium acetate pH 4.0 (BR100351, GE Healthcare, Piscataway, N.J., USA). T4-AP and AP were immobilized to preconditioned CM5 chip using EDC/NHS—chemistry following manufacturer's instructions. Concentration of anti-T4 Fab fragment was calculated using theoretical extinction coefficient (ExPASy ProtParam tool, web.expasy.org/protparam) of the anti-T4 Fab fragment and by measuring the A280 with NanoDrop 2000c instrument (Thermo Disher Scientific, Waltham, Mass., USA). […] Flowrate was set to 30 μl/min in all cycle steps.
Preincubated mixtures were injected over the sensor chip surface for seven minutes and dissociated for 30 seconds. […] Data collection point was set to be 10 seconds after the start of dissociation phase. All sample series were run as triplicates, where a single sample series consisted from growing small molecule concentration in the preincubation mixture. Data was reference and blank subtracted. In addition, small differences in DMSO between the samples were compensated using DMSO solvent correction series, as recommended by instrument manufacturer GE Healthcare). Concentrations of free anti-T4 Fab fragments remaining in the preincubated mixtures were calculated by comparing the obtained responses against standard curve of anti-T4 Fab fragment. Affinity constants were calculated using BIAcore T200 Evaluation Software (GE Healthcare, Piscataway, N.J., USA) applying four-parameter logistic function. (See FIGS. 4A and B and Table 1.)

For a further assay, the system named is anti-T4 Fab. Nature of the assay: competitive ELISA, T4-BSA coated wells, 0.25 nM anti-T4 Fab pre-incubated with analyte. It is filed as binding, mouse. The conditions noted are these: for IC50: by ELISA assay, read-out: relative IC50. The method, then:
Microtiter plate wells (Nunc, 436023) were coated with 100 μl of 4 μg/ml T4-BSA (Fitzgerald, 80-IT50) in PBS (15 mM phosphate, 150 mM NaCl, pH 7.3) for one hour at +37° C. with 600 rpm shaking. Wells were then washed three times with 300 μl PBS supplemented with 0.05% (v/v) Tween20 (Sigma-Aldrich, 93773-250G). Wells were blocked with 200 μl of Superblock® (Thermo Fisher Scientific, 37516) for 30 minutes in room temperature with 600 rpm shaking and washed as above. 100 μl of pre-incubated mixtures, containing 0.25 nM anti-T4 Fab and varying concentrations of L-thyroxine (T4) (Sigma-Aldrich, T2376) in PBSP (GE Healthcare, 28-9950-84) supplemented with 1% DMSO (v/v) (Sigma-Aldrich, D5879-100ML), were transferred to wells and incubated for 30 minutes with 600 rpm shaking in room temperature. Each sample had 12 replicates. Wells were washed as above and 100 μl of Goat anti-mouse Kappa-HRP (SoutherBiotech, 1050-05) diluted 1:1000 in Superblock was transferred to wells and incubation was carried out for 30 minutes at 600 rpm shaking in room temperature. Wells were washed as above and 100 μl of TMB Microwell Peroxidase Substrate System (2-C) (SeraCare, 50-76-00) was transferred to wells and enzymatic reaction was carried out for 30 minutes with 600 rpm shaking in room temperature. Reactions were stopped by transferring 100 μl of 1 M H3PO4 to the wells and measured at A450 using Varioskan (Thermo Fisher Scientific). Data was analysed with OriginPro 2017-software.
Assay was performed as in the previous paragraph (under title L-Thyroxine) except instead of T4 (Thyroxine) TIBPA (Tetraiodobisphenol A) was used.
Assay was performed as in the paragraph under title L-Thyroxine except instead of T4 (Thyroxine) TBBPA (Tetrabromobisphenol A) was used.
Assay was performed as in the paragraph under title L-Thyroxine except instead of T4 (Thyroxine) TCBPA (Tetrachlorobisphenol A) was used.
Assay was performed as in the paragraph under title L-Thyroxine except instead of T4 (Thyroxine) BPA (Bisphenol A) was used.

Take `CC(C)(c1cc(Cl)c(O)c(Cl)c1)c1cc(Cl)c(O)c(Cl)c1` [TCBPA, Tetrachlorobisphenol A]: the dissociation constant Kd (commonly the constant that tells how readily two partners part at equilibrium) on anti-T4 Fab fragment is 558 nM. Besides, in the assay with anti-T4 Fab, the IC50 – broadly, the midpoint of a concentration-inhibition curve – is 544 nM.

On anti-T4 Fab fragment, `CC(C)(c1cc(Br)c(O)c(Br)c1)c1cc(Br)c(O)c(Br)c1` [TBBPA, Tetrabromobisphenol A] displayed a dissociation constant Kd of 69.2 nM. Moreover, in the assay with anti-T4 Fab, the concentration for half-maximal inhibition (IC50) is 74 nM.

For the molecule `N[C@@H](Cc1ccc(Oc2ccc(O)cc2)cc1)C(=O)O` [Compound T0], the “KD, anti-T4 Fab” value at anti-T4 Fab fragment is reported as “no binding”.

In the case of `CC(C)(c1cc(I)c(O)c(I)c1)c1cc(I)c(O)c(I)c1` [TIBPA, Tetraiodobisphenol A], on anti-T4 Fab fragment, binding was put at a Kd of 37.3 nM. In the assay on anti-T4 Fab, the 50% inhibitory concentration (IC50) was determined as 54 nM.

Consider `CC(C)(c1ccc(O)cc1)c1ccc(O)cc1` [BPA, Bisphenol A], for which the “KD, anti-T4 Fab” value at anti-T4 Fab fragment was “no binding”. Further, the “competition in competitive ELISA assay” value in the assay with anti-T4 Fab (high concentration (5 μM)) is given as “No competition was observed”.

At anti-T4 Fab fragment, `N[C@@H](Cc1cc(I)c(Oc2cc(I)c(O)c(I)c2)c(I)c1)C(=O)O` [Compound T4, 3,5,3′,5′-tetraiodothyronine] registered an equilibrium dissociation constant (Kd) of 0.53 nM. Also, the IC50 in the assay with anti-T4 Fab is 0.54 nM.
